Results taken from ChEMBL document CHEMBL4265947, “Conformation impacts on the bioactivities of SMART analogues” (Eur J Med Chem, 2018).

Experiments:
HT-1080 = assay: Antiproliferative activity against human HT1080 cells after 72 hrs by MTT assay; format: functional, cell-based; details: HT-1080, 72 h
L929 = assay: Antiproliferative activity against mouse L929 cells after 72 hrs by MTT assay; format: cell-based; details: L929, 72 h
A549 = assay: Antiproliferative activity against human A549 cells after 72 hrs by MTT assay; format: functional, cell-based; details: A549, 72 h
SGC-7901 = assay: Antiproliferative activity against human SGC7901 cells after 72 hrs by MTT assay; format: functional, cell-based; details: SGC-7901, 72 h
[1] = Selectivity index, ratio of IC50 for mouse L929 cells to IC50 for human A549 cells; format: toxicity; details: L929 cells versus A549 cells, read-out: Ratio IC50
[2] = Selectivity index, ratio of IC50 for mouse L929 cells to IC50 for human HT1080 cells; format: toxicity; details: L929 cells versus HT1080 cells, read-out: Ratio IC50
[3] = Selectivity index, ratio of IC50 for mouse L929 cells to IC50 for human SGC7901 cells; format: toxicity; details: L929 cells versus SGC7901 cells, read-out: Ratio IC50
Sus scrofa = species: Sus scrofa; assay: (§1) Inhibition of porcine tubulin polymerization preincubated for 1 min and measured for 82 mins by fluorescence assay
[4] = as §1; parameters: species or system Sus scrofa

Compound | IC50 (HT-1080) [nM] | IC50 (L929) [nM] | IC50 (A549) [nM] | IC50 (SGC-7901) [nM] | selectivity ratio [1] | selectivity ratio [2] | selectivity ratio [3] | inhibition (Sus scrofa) | IC50 [4] [nM]
COc1cc(C(=O)c2csc(-c3ccccc3)n2)cc(OC)c1OC | 150 | – | – | – | – | – | – | – | –
COc1ccc(/C=C\c2cc(OC)c(OC)c(OC)c2)cc1O [COMBRETASTATIN A4] | – | 820 | 16 | 12 | – | – | – | – | –
COc1cc(C(=O)c2nc(-c3ccc(C)cc3)n[nH]2)cc(OC)c1OC | 650 | 42600 | 1070 | 380 | 39.8 | 65.5 | 112 | Dose-dependent effect | 7710
COc1cc(C(=O)c2nnc(-c3ccc(C)cc3)o2)cc(OC)c1OC | > 100000 | – | 15300 | 6770 | – | – | – | – | –
COc1cc(C(=O)c2nnc(-c3ccc(C)cc3)s2)cc(OC)c1OC | > 100000 | – | 35300 | > 100000 | – | – | – | – | > 100000
COc1cc2c(c(OC)c1OC)-c1ccc(OC)c(=O)cc1[C@@H](NC(C)=O)CC2 [COLCHICINE] | 42 | 1010 | 137 | 134 | 7.4 | 24 | 7.5 | – | –
